Data from patent US20090131356A1, “miR-15, miR-26, miR-31, miR-145, miR-147, miR-188, miR-215, miR-216, miR-331, mmu-miR-292-3P REGULATED GENES AND PATHWAYS AS TARGETS FOR THERAPEUTIC INTERVENTION” (ASURAGEN, INC., priority 2006, published 2009).

Legend:
Format in all cases: cell-based, human
H226 cells = test: Alamar Blue proliferation assay, H226 (electroporation)
Description: (§1) The inventors assessed the therapeutic effect of hsa-miR-147 for lung cancer by using 12 individual lung cancer cell lines. To measure cellular proliferation of lung cancer cells, the following parental non-small cell lung cancer (NSCLC) cells were used: cells derived from lung adenocarcinoma (A549, H1299, H522, H838, Calu-3, HCC827, HCC2935), cells derived from lung squamous cell carcinoma (H520, H226), cells derived from lung adenosquamous cell carcinoma (H596), cells derived from lung bronchioalveolar carcinoma (H1650), and cells derived from lung large cell carcinoma (H460). In addition to these parental cell lines, highly metastatic NSCLC cells were used that stably express the firefly luciferase gene: A549-luc, H460-luc, HCC827-luc, H1650-luc, H441-luc. Unlike the parental cell lines, these metastatic cells readily migrate to distant sites of the test animal and form metastases upon subcutaneous, orthotopic, or intravenous injection. Synthetic hsa-miR-147 or negative control miRNA was delivered via lipid-based transfection into A549, H1299, H522, H838, Calu-3, HCC827, HCC2935, H520, H596, H1650, H460, A549-luc, H460-luc, HCC827-luc, H1650-luc, H441-luc cells and via electroporation into H226 cells. Lipid-based reverse transfection was carried out in triplicates according to a published protocol and the following parameters: 5000-12000 cells per 96 well, 0.1-0.2 μl lipofectamine-2000 (Invitrogen, Carlsbad, Calif.) in 20 μl OptiMEM (Invitrogen), […] final concentration of miRNA in 100 μl (Ovcharenko et al., 2005). Electroporation of H226 cells was carried out using the BioRad GenePulserXcell™ instrument with the following settings: 5×10^6 cells with 5 μg miRNA in 200 μl OptiMEM, square wave pulse at 250 V for 5 ms. Electroporated H226 cells were seeded at 7000 cells per 96-well in a total volume of 100 μl. All cells except for Calu-3 cells were harvested 72 hours post transfection or electroporation for assessment of cellular proliferation. Calu-3 cells were harvested 10 days post transfection. […]

H1650 cells = test: Alamar Blue proliferation assay, H1650
Description: as §1

H460-luc cells = test: Alamar Blue proliferation assay, H460-luc
Description: as §1

H1650-luc cells = test: Alamar Blue proliferation assay, H1650-luc
Description: as §1

Calu-3 cells = test: Alamar Blue proliferation assay, Calu-3
Description: as §1

H520 cells = test: Alamar Blue proliferation assay, H520
Description: as §1

A549-luc cells = test: Alamar Blue proliferation assay, A549-luc
Description: as §1

H460 cells = test: Alamar Blue proliferation assay, H460
Description: as §1

A549 cells = test: Alamar Blue proliferation assay, A549
Description: as §1, with “ms.” for “ms. Electroporated H226 cells were seeded at 7000 cells per 96-well in a total volume of 100 μl. All cells except for Calu-3 cells were harvested 72 hours post transfection or electroporation for assessment of cellular proliferation. Calu-3 cells were harvested 10 days post transfection.”
The inventors determined sensitivity and specificity of hsa-miR-147 by administering hsa-miR-147 or negative control miRNA at increasing concentrations, ranging from 0 pM to 3 nM. Delivery of miRNA and cellular proliferation of A549 and H1299 cells was assessed as described above. […]

H596 cells = test: Alamar Blue proliferation assay, H596
Description: as §1

HCC827-luc cells = test: Alamar Blue proliferation assay, HCC827-luc
Description: as §1

[1] = system: metastatic lung cancer cells; test: Alamar Blue proliferation assay, average over metastatic luciferase-expressing lung cancer cell lines; conditions: average of 5 metastatic luc lung cancer cell lines; vs negative control miRNA (=100%); 72 hours
Description: (§2) The inventors assessed the therapeutic effect of hsa-miR-147 for lung cancer by using 12 individual lung cancer cell lines. To measure cellular proliferation of lung cancer cells, the following parental non-small cell lung cancer (NSCLC) cells were used: cells derived from lung adenocarcinoma (A549, H1299, H522, H838, Calu-3, HCC827, HCC2935), cells derived from lung squamous cell carcinoma (H520, H226), cells derived from lung adenosquamous cell carcinoma (H596), cells derived from lung bronchioalveolar carcinoma (H1650), and cells derived from lung large cell carcinoma (H460). In addition to these parental cell lines, highly metastatic NSCLC cells were used that stably express the firefly luciferase gene: A549-luc, H460-luc, HCC827-luc, H1650-luc, H441-luc. Unlike the parental cell lines, these metastatic cells readily migrate to distant sites of the test animal and form metastases upon subcutaneous, orthotopic, or intravenous injection. Synthetic hsa-miR-147 or negative control miRNA was delivered via lipid-based transfection into A549, H1299, H522, H838, Calu-3, HCC827, HCC2935, H520, H596, H1650, H460, A549-luc, H460-luc, HCC827-luc, H1650-luc, H441-luc cells and via electroporation into H226 cells. […]

HCC2935 cells = test: Alamar Blue proliferation assay, HCC2935; conditions: 30 nM, normalized to negative control miRNA (100% proliferation)
Description: as §2

[2] = system: parental lung cancer cells; test: Alamar Blue proliferation assay, average over parental lung cancer cell lines; conditions: average of 12 parental lung cancer cell lines; vs negative control miRNA (=100%); 72 hours (Calu-3 10 days)
Description: as §2

[3] = etoposide 10 μM, normalized to negative control miRNA (100%)
[4] = etoposide 50 μM, normalized to negative control miRNA (100%)
[5] = 30 nM, normalized to negative control miRNA (100% proliferation)

COc1cc([C@@H]2c3cc4c(cc3[C@@H](O[C@@H]3O[C@@H]5CO[C@@H](C)O[C@H]5[C@H](O)[C@H]3O)[C@H]3COC(=O)[C@H]23)OCO4)cc(OC)c1O [Etoposide, etoposide]
% proliferation (H226 cells; [3]): 28.17% | % proliferation (H226 cells; [4]): 9.33% | % proliferation (H1650 cells; [3]): 90.98% | % proliferation (H1650 cells; [4]): 60.31% | % proliferation (H460-luc cells; [3]): 15.04% | % proliferation (H460-luc cells; [4]): 2.34% | % proliferation (H1650-luc cells; [3]): 33.78% | % proliferation (H1650-luc cells; [4]): 5.59% | % proliferation (Calu-3 cells; [3]): 20.81% | % proliferation (Calu-3 cells; [4]): 13.53% | % proliferation (H520 cells; [3]): 66.80% | % proliferation (H520 cells; [4]): 48.53% | % proliferation (A549-luc cells; [3]): 8.56% | % proliferation (A549-luc cells; [4]): 0.72% | % proliferation (H460 cells; [3]): 32.13% | % proliferation (H460 cells; [4]): 27.82% | % proliferation (A549 cells; [3]): 49.13% | % proliferation (A549 cells; [4]): 42.18% | % proliferation (H596 cells; [3]): 88.75% | % proliferation (H596 cells; [4]): 73.39% | % proliferation (HCC827-luc cells; [3]): 21.92% | % proliferation (HCC827-luc cells; [4]): 0.75%

hsa-miR-147: Synthetic pre-miR-147 (Ambion AM17100; Dharmacon in vivo); mature sequence GUGUGUGGAAAUGCUUCUGC, MIMAT0000251, SEQ ID NO:114 (synthetic pre-miR (Ambion/Dharmacon), chemistry not given here; listed as Homo sapiens)
% proliferation (H226 cells; [5]): 72.82% | % proliferation (H1650 cells; [5]): 84.61% | % proliferation (H460-luc cells; [5]): 39.54% | % proliferation (H1650-luc cells; [5]): 59.27% | inhibition of cell growth, on average [1]: 42% | % proliferation (HCC2935 cells): 60.35% | % proliferation (Calu-3 cells; [5]): 37.62% | % proliferation (H520 cells; [5]): 95.64% | % proliferation (A549-luc cells; [5]): 75.69% | % proliferation (H460 cells; [5]): 72.11% | % proliferation (A549 cells; [5]): 67.78% | % proliferation (H596 cells; [5]): 91.60% | % proliferation (HCC827-luc cells; [5]): 61.15% | inhibition of cellular proliferation, on average [2]: 25%
